Data on two compounds can be found in PMC4128814, “A High Throughput Screen Identifies Potent and Selective Inhibitors to Human Epithelial 15-Lipoxygenase-2” (PLoS ONE, 2014).

Structures are written as SMILES. Bounds are passed on as bounds.

For one assay, the target named is T1, 12-LOX (Homo sapiens, UniProt P18054).
T1 construct: His6 (N); made in house
T1 sequence (P18054 1-663): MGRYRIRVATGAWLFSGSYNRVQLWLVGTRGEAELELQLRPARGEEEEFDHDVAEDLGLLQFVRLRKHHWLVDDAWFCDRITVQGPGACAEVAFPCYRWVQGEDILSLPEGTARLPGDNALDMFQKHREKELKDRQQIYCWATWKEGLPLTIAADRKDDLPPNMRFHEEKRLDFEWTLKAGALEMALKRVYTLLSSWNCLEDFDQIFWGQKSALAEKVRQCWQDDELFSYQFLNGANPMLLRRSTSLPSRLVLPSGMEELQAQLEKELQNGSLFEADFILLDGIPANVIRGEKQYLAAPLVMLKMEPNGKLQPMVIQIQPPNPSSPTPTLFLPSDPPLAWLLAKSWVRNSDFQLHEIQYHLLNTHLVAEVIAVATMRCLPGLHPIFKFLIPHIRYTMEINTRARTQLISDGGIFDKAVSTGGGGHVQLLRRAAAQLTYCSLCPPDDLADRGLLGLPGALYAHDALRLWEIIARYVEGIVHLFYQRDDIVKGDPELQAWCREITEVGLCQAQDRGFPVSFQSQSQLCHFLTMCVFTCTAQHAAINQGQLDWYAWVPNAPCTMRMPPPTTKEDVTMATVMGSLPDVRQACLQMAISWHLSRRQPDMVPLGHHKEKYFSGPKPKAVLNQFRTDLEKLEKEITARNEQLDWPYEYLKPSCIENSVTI
Briefly: Lipoxygenase UV-Vis assay, 12-LOX. In kind it is biochemical. As to conditions: estimated from one inhibitor point at 20 µM; 10 µM AA. The procedure: Human leukocyte 5-lipoxygenase (5-LOX) was expressed as a non-tagged protein and used as a crude ammonium sulfate protein fraction, as published previously, [20].
The reactions were initiated by adding 200 nM 15-LOX-2, 30 nM 12-LOX, 40 nM 15-LOX-1, or approximately 100–300 nM (5–10 µL) of 5-LOX crude extract to a cuvette with 2 mL reaction buffer, constantly stirred using a magnetic stir bar at room temperature (22°C). Reaction buffers used for various LOX isozymes were as follows: 25 mM HEPES (pH 7.3), 0.3 mM CaCl2, 0.1 mM EDTA, 0.2 mM ATP, 0.01% Triton X-100, 10 µM AA for the crude, ammonium sulfate precipitated 5-LOX; and 25 mM HEPES (pH 7.5), 0.01% Triton X-100, 10 µM AA for 15-LOX-2, 15-LOX-1, and 12-LOX. The substrate concentration was quantitatively determined by allowing the enzymatic reaction to go to completion in the presence of 15-LOX-2. […] The data were then plotted against inhibitor concentration, followed by a hyperbolic saturation curve fit (assuming total enzyme concentration [E]≪IC50). […] All inhibitors were stored at −20°C in DMSO. NDGA was utilized as positive control for the selectivity assays for the various LOX isozymes.

A further assay has as its target T2, 15-LOX-1 (Homo sapiens, UniProt P16050).
T2 construct: His6 (N); made in house
T2 sequence (P16050 1-662): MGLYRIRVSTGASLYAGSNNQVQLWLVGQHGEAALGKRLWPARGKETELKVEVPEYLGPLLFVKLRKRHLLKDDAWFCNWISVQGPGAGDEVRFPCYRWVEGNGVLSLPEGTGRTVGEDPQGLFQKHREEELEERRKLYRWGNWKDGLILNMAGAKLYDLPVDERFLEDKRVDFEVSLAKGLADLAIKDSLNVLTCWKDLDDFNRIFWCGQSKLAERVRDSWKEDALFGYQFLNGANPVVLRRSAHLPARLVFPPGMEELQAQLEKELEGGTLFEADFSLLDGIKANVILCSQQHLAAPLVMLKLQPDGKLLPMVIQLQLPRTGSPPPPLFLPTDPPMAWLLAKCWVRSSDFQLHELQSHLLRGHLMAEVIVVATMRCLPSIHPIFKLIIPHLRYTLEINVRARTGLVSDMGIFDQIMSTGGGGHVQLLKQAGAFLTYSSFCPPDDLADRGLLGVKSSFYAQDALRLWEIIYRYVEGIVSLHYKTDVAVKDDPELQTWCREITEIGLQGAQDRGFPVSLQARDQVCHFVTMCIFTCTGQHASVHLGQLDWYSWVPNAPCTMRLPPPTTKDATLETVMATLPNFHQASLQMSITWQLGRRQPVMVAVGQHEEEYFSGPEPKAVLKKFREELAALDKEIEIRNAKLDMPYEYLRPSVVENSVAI
Briefly: Lipoxygenase UV-Vis assay, 15-LOX-1. In kind it is biochemical. To be noted: estimated from one inhibitor point at 20 µM; 10 µM AA. The source says: Different lipoxygenases, such as 15-LOX-1, 15-LOX-2, and 12-LOX were expressed as N-terminal His6-tagged proteins and were purified via immobilized metal affinity chromatography (IMAC) using an Ni-NTA resin for 15-LOX-1 [12], and 15-LOX-2 [17], and a Ni-IDA resin for 12-LOX [18]. […] Human leukocyte 5-lipoxygenase (5-LOX) was expressed as a non-tagged protein and used as a crude ammonium sulfate protein fraction, as published previously, [20].
The inhibitor compounds were screened initially using one concentration point at 25 µM on a Perkin-Elmer Lambda 40 UV/Vis spectrophotometer. […] The reactions were initiated by adding 200 nM 15-LOX-2, 30 nM 12-LOX, 40 nM 15-LOX-1, or approximately 100–300 nM (5–10 µL) of 5-LOX crude extract to a cuvette with 2 mL reaction buffer, constantly stirred using a magnetic stir bar at room temperature (22°C). Reaction buffers used for various LOX isozymes were as follows: 25 mM HEPES (pH 7.3), 0.3 mM CaCl2, 0.1 mM EDTA, 0.2 mM ATP, 0.01% Triton X-100, 10 µM AA for the crude, ammonium sulfate precipitated 5-LOX; and 25 mM HEPES (pH 7.5), 0.01% Triton X-100, 10 µM AA for 15-LOX-2, 15-LOX-1, and 12-LOX. […] The data were then plotted against inhibitor concentration, followed by a hyperbolic saturation curve fit (assuming total enzyme concentration [E]≪IC50). […] All inhibitors were stored at −20°C in DMSO. […]

In the case of `Cc1ccc(CSc2ncn(-c3ccccc3)n2)cc1` [MLS000536924], the half-inhibitory concentration (IC50) (commonly the concentration that inhibits the measured activity by half) was more than 100 µM at 12-LOX and more than 50 µM at 15-LOX-1.

Take `Clc1ccc(-c2nnc(C3CCCCC3)o2)cc1` [MLS000545091]: the concentration for half-maximal inhibition (IC50) on 12-LOX and on 15-LOX-1 was more than 100 µM in each case.
